Test results from patent publication US20230085307A1, “PYRIDAZINONE COMPOUND AND HERBICIDE” (NISSAN CHEMICAL CORPORATION, priority 2019, published 2023).

Experiments:
[1] = test system: late watergrass; test: Test Example 2: herbicidal activity, application during weed generation under submerged conditions (Table 17, symbol A); format: in vivo, late watergrass (Echinochloa oryzicola); conditions: AAH 320 g/ha; application during weed generation, submerged conditions
Outline: (§1)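 Steps: fill Wagner pots with alluvial soil; add water to give 4 cm depth; sow the species mixed; grow under glass at 25–30° C.; at 1–2 leaves apply water-diluted emulsion formulation to the water surface at a fixed herbicide amount; score after 3 weeks.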

[2] = test system: Japanese bulrush; test: Test Example 2: herbicidal activity, application during weed generation under submerged conditions (Table 17, symbol B); format: in vivo, Japanese bulrush (Schoenoplectus juncoides); conditions: AAH 320 g/ha; application during weed generation, submerged conditions
Outline: as §1

[3] = test system: oval-leafed pondweed; test: Test Example 2: herbicidal activity, application during weed generation under submerged conditions (Table 17, symbol C); format: in vivo, oval-leafed pondweed (Monochoria vaginalis); conditions: AAH 320 g/ha; application during weed generation, submerged conditions
Outline: as §1

[4] = test system: barnyard grass; test: Test Example 3: herbicidal effect by foliage application, Wagner pot (Table 18, symbol H); format: in vivo, barnyard grass (Echinochloa crus-galli); conditions: amount of applied herbicide 320 g/ha
Outline: (§2)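 Plants were sown in alluvial soil held under 0.1–0.5 cm standing water and grown 14 days in a greenhouse at 25–30 °C. An emulsifiable formulation, water-diluted to the set dose, was then sprayed onto the foliage, and effects were scored three weeks later using previously defined criteria.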

[5] = test system: Chinese sprangletop; test: Test Example 3: herbicidal effect by foliage application, Wagner pot (Table 18, symbol D); format: in vivo, chinese sprangletop (Leptochloa chinensis); conditions: amount of applied herbicide 320 g/ha
Outline: as §2

[6] = test system: rice flat sedge; test: Test Example 3: herbicidal effect by foliage application, Wagner pot (Table 18, symbol E); format: in vivo, rice flat sedge (Cyperus iria); conditions: amount of applied herbicide 320 g/ha
Outline: as §2

[7] = test system: southern crabgrass; test: Test Example 4: herbicidal effect by soil treatment (Table 19, symbol F); format: in vivo, southern crabgrass (Digitaria ciliaris); conditions: amount of applied herbicide 320 g/ha
Outline: (§3)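 Herbicidal effect was rated 3 weeks after treatment, using the scoring criteria of an earlier test. The compound, formulated as an emulsion and diluted in water to a set herbicide amount, had been sprayed uniformly on soil over freshly sown seeds. Growth took place in a greenhouse at 25° C. to 30° C.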

[8] = test system: green foxtail; test: Test Example 4: herbicidal effect by soil treatment (Table 19, symbol G); format: in vivo, green foxtail (Setaria viridis); conditions: amount of applied herbicide 320 g/ha
Outline: as §3

[9] = test system: barnyard grass; test: Test Example 4: herbicidal effect by soil treatment (Table 19, symbol H); format: in vivo, barnyard grass (Echinochloa crus-galli); conditions: amount of applied herbicide 320 g/ha
Outline: as §3

[10] = test system: wild oat; test: Test Example 4: herbicidal effect by soil treatment (Table 19, symbol I); format: in vivo, wild oat (Avena fatua); conditions: amount of applied herbicide 320 g/ha
Outline: as §3

[11] = test system: Italian ryegrass; test: Test Example 4: herbicidal effect by soil treatment (Table 19, symbol K); format: in vivo, Italian ryegrass (Lolium multiflorum); conditions: amount of applied herbicide 320 g/ha
Outline: as §3

[12] = test system: windgrass; test: Test Example 4: herbicidal effect by soil treatment (Table 19, symbol L); format: in vivo, windgrass (Apera spica-venti); conditions: amount of applied herbicide 320 g/ha
Outline: as §3

[13] = test system: velvetleaf; test: Test Example 4: herbicidal effect by soil treatment (Table 19, symbol M); format: in vivo, velvetleaf (Abutilon theophrasti); conditions: amount of applied herbicide 320 g/ha
Outline: as §3

[14] = test system: redroot pigweed; test: Test Example 4: herbicidal effect by soil treatment (Table 19, symbol N); format: in vivo, redroot pigweed (Amaranthus retroflexus); conditions: amount of applied herbicide 320 g/ha
Outline: as §3

[15] = test system: lambsquarters; test: Test Example 4: herbicidal effect by soil treatment (Table 19, symbol O); format: in vivo, lambsquarters (Chenopodium album); conditions: amount of applied herbicide 320 g/ha
Outline: as §3

[16] = test system: chickweed; test: Test Example 4: herbicidal effect by soil treatment (Table 19, symbol P); format: in vivo, common chickweed (Stellaria media); conditions: amount of applied herbicide 320 g/ha
Outline: as §3

[17] = test system: false cleavers; test: Test Example 4: herbicidal effect by soil treatment (Table 19, symbol Q); format: in vivo, false cleavers (Galium spurium); conditions: amount of applied herbicide 320 g/ha
Outline: as §3

[18] = test system: persian speedwell; test: Test Example 4: herbicidal effect by soil treatment (Table 19, symbol R); format: in vivo, Persian speedwell (Veronica persica); conditions: amount of applied herbicide 320 g/ha
Outline: as §3

[19] = test system: southern crabgrass; test: Test Example 5: herbicidal effect by foliage application, plastic box (Table 20, symbol F); format: in vivo, southern crabgrass (Digitaria ciliaris); conditions: foliage application, 320 g/ha, evaluated three weeks after application
Outline: (§4)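 Foliar spray test: emulsion formulation diluted in water to a set application rate, sprayed onto 14-day-old plants raised in diluvial soil at 25° C to 30° C under glass. Both herbicidal effect and crop effect rated visually three weeks later.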

[20] = test system: green foxtail; test: Test Example 5: herbicidal effect by foliage application, plastic box (Table 20, symbol G); format: in vivo, green foxtail (Setaria viridis); conditions: foliage application, 320 g/ha, evaluated three weeks after application
Outline: as §4

[21] = test system: barnyard grass; test: Test Example 5: herbicidal effect by foliage application, plastic box (Table 20, symbol H); format: in vivo, barnyard grass (Echinochloa crus-galli); conditions: foliage application, 320 g/ha, evaluated three weeks after application
Outline: as §4

[22] = test system: wild oat; test: Test Example 5: herbicidal effect by foliage application, plastic box (Table 20, symbol I); format: in vivo, wild oat (Avena fatua); conditions: foliage application, 320 g/ha, evaluated three weeks after application
Outline: as §4

[23] = test system: blackgrass; test: Test Example 5: herbicidal effect by foliage application, plastic box (Table 20, symbol J); format: in vivo, blackgrass (Alopecurus myosuroides); conditions: foliage application, 320 g/ha, evaluated three weeks after application
Outline: as §4

[24] = test system: Italian ryegrass; test: Test Example 5: herbicidal effect by foliage application, plastic box (Table 20, symbol K); format: in vivo, Italian ryegrass (Lolium multiflorum); conditions: foliage application, 320 g/ha, evaluated three weeks after application
Outline: as §4

[25] = test system: windgrass; test: Test Example 5: herbicidal effect by foliage application, plastic box (Table 20, symbol L); format: in vivo, windgrass (Apera spica-venti); conditions: foliage application, 320 g/ha, evaluated three weeks after application
Outline: as §4

[26] = test system: velvetleaf; test: Test Example 5: herbicidal effect by foliage application, plastic box (Table 20, symbol M); format: in vivo, velvetleaf (Abutilon theophrasti); conditions: foliage application, 320 g/ha, evaluated three weeks after application
Outline: as §4

[27] = test system: redroot pigweed; test: Test Example 5: herbicidal effect by foliage application, plastic box (Table 20, symbol N); format: in vivo, redroot pigweed (Amaranthus retroflexus); conditions: foliage application, 320 g/ha, evaluated three weeks after application
Outline: as §4

[28] = test system: lambsquarters; test: Test Example 5: herbicidal effect by foliage application, plastic box (Table 20, symbol O); format: in vivo, lambsquarters (Chenopodium album); conditions: foliage application, 320 g/ha, evaluated three weeks after application
Outline: as §4

[29] = test system: chickweed; test: Test Example 5: herbicidal effect by foliage application, plastic box (Table 20, symbol P); format: in vivo, common chickweed (Stellaria media); conditions: foliage application, 320 g/ha, evaluated three weeks after application
Outline: as §4

[30] = test system: false cleavers; test: Test Example 5: herbicidal effect by foliage application, plastic box (Table 20, symbol Q); format: in vivo, false cleavers (Galium spurium); conditions: foliage application, 320 g/ha, evaluated three weeks after application
Outline: as §4

[31] = test system: persian speedwell; test: Test Example 5: herbicidal effect by foliage application, plastic box (Table 20, symbol R); format: in vivo, Persian speedwell (Veronica persica); conditions: foliage application, 320 g/ha, evaluated three weeks after application
Outline: as §4

## CCCC(=O)Oc1c(C)nn(C)c(=O)c1-c1c(-c2ccc3c(c2)OCCO3)sc2ccc(Cl)cc12 [2-128]
[1]
  herbicidal effect rating, A: late watergrass: 0 (Herbicidal rate of 5% or less (almost no effect))
[2]
  herbicidal effect rating, B: Japanese bulrush: 0 (Herbicidal rate of 5% or less (almost no effect))
[3]
  herbicidal effect rating, C: oval-leafed pondweed: 3 (Herbicidal rate of 40% or more and less than 70%)
[4]
  herbicidal effect on H: barnyard grass: 3 (Herbicidal rate of 40% or more and less than 70%)
[5]
  herbicidal effect on D: Chinese sprangletop: 0 (Herbicidal rate of 5% or less (almost no effect))
[6]
  herbicidal effect on E: rice flat sedge: 0 (Herbicidal rate of 5% or less (almost no effect))
[7]
  F: southern crabgrass, herbicidal effect rating: 0 (Herbicidal rate of 5% or less (almost no effect))
[8]
  G: green foxtail, herbicidal effect rating: 0 (Herbicidal rate of 5% or less (almost no effect))
[9]
  H: barnyard grass, herbicidal effect rating: 0 (Herbicidal rate of 5% or less (almost no effect))
[10]
  I: wild oat, herbicidal effect rating: 0 (Herbicidal rate of 5% or less (almost no effect))
[11]
  K: Italian ryegrass, herbicidal effect rating: 0 (Herbicidal rate of 5% or less (almost no effect))
[12]
  L: windgrass, herbicidal effect rating: 0 (Herbicidal rate of 5% or less (almost no effect))
[13]
  M: velvetleaf, herbicidal effect rating: 0 (Herbicidal rate of 5% or less (almost no effect))
[14]
  N: redroot pigweed, herbicidal effect rating: 0 (Herbicidal rate of 5% or less (almost no effect))
[15]
  O: lambsquarters, herbicidal effect rating: 0 (Herbicidal rate of 5% or less (almost no effect))
[16]
  P: chickweed, herbicidal effect rating: 1 (Herbicidal rate of 5% or more and less than 20%)
[17]
  Q: false cleavers, herbicidal effect rating: 0 (Herbicidal rate of 5% or less (almost no effect))
[18]
  R: persian speedwell, herbicidal effect rating: 5 (Herbicidal rate of 90% or more (almost completely withered))
[19]
  herbicidal effect on F: southern crabgrass: 0 (Herbicidal rate of 5% or less (almost no effect))
[20]
  herbicidal effect on G: green foxtail: 0 (Herbicidal rate of 5% or less (almost no effect))
[21]
  herbicidal effect on H: barnyard grass: 0 (Herbicidal rate of 5% or less (almost no effect))
[22]
  herbicidal effect on I: wild oat: 0 (Herbicidal rate of 5% or less (almost no effect))
[23]
  herbicidal effect on J: blackgrass: 0 (Herbicidal rate of 5% or less (almost no effect))
[24]
  herbicidal effect on K: Italian ryegrass: 0 (Herbicidal rate of 5% or less (almost no effect))
[25]
  herbicidal effect on L: windgrass: 0 (Herbicidal rate of 5% or less (almost no effect))
[26]
  herbicidal effect on M: velvetleaf: 2 (Herbicidal rate of 20% or more and less than 40%)
[27]
  herbicidal effect on N: redroot pigweed: 3 (Herbicidal rate of 40% or more and less than 70%)
[28]
  herbicidal effect on O: lambsquarters: 1 (Herbicidal rate of 5% or more and less than 20%)
[29]
  herbicidal effect on P: chickweed: 5 (Herbicidal rate of 90% or more (almost completely withered))
[30]
  herbicidal effect on Q: false cleavers: 0 (Herbicidal rate of 5% or less (almost no effect))
[31]
  herbicidal effect on R: persian speedwell: 5 (Herbicidal rate of 90% or more (almost completely withered))
